# Test results reported in patent US10100076B2, “Modified nucleosides for the treatment of viral infections and abnormal cellular proliferation” (priority 2000, dated 2018).
# System: HCV replicon
# Assay: HCV replicon system in Huh7 cells, replicon RNA by Q-RT-PCR (HCV ΔCt, ΔΔCt)
# Assay type: cell-based, hepatitis C virus
# Settings: Table 24; HCV RNA ΔCt minus rRNA ΔCt
# Further: test concentration or dose not given here.
row,Compound,Ave. ΔΔCt
1,OC[C@@H]1O[C@H](n2cnc3c(Cl)ncnc32)CS1 [β-L-KA],−0.74
2,Nc1ncnc2c([C@@H]3O[C@H](CO)[C@@H](O)[C@H]3O)cnn12 [β-D-UA],1.3
3,Nc1nc(=O)n([C@@H]2O[C@H](CO)[C@@H](O)[C@H]2O)cc1F [β-D-AQ],1.22
4,N=c1nc2n(cc1F)[C@@H]1O[C@H](CO)[C@@H](O)[C@@H]1O2 [β-D-MF],1.10
5,Nc1nc(F)nc2c1ncn2[C@@H]1CS[C@H](CO)O1 [β-L-KC],−0.16
6,O=c1nc(NO)c(I)cn1[C@@H]1O[C@H](CO)[C@@H](O)[C@H]1O [β-D-BV],1.22
7,N=c1nc2c(c[nH]1)[C@@H]1O[C@H](CO)[C@@H](O)[C@@H]1O2 [β-D-TA],0.69
8,"NC(=O)c1ncn([C@@H]2O[C@H](CO)[C@@H](O)[C@H]2O)n1 [RIB, ribavirin, reference compound]",0.78
9,Nc1ccn([C@@H]2C=C(CO)[C@@H](O)[C@H]2O)c(=O)n1 [β-D-HA],1.68

# Same assay, conditions: Table 24; HCV replicon in Huh7 cells; average of n
row,Compound,Ave. HCV RNA ΔCt
1,OC[C@@H]1O[C@H](n2cnc3c(Cl)ncnc32)CS1 [β-L-KA],4.10
2,Nc1ncnc2c([C@@H]3O[C@H](CO)[C@@H](O)[C@H]3O)cnn12 [β-D-UA],2.91
3,Nc1nc(=O)n([C@@H]2O[C@H](CO)[C@@H](O)[C@H]2O)cc1F [β-D-AQ],4.45
4,N=c1nc2n(cc1F)[C@@H]1O[C@H](CO)[C@@H](O)[C@@H]1O2 [β-D-MF],3.79
5,Nc1nc(F)nc2c1ncn2[C@@H]1CS[C@H](CO)O1 [β-L-KC],1.19
6,O=c1nc(NO)c(I)cn1[C@@H]1O[C@H](CO)[C@@H](O)[C@H]1O [β-D-BV],1.88
7,N=c1nc2c(c[nH]1)[C@@H]1O[C@H](CO)[C@@H](O)[C@@H]1O2 [β-D-TA],4.00
8,"NC(=O)c1ncn([C@@H]2O[C@H](CO)[C@@H](O)[C@H]2O)n1 [RIB, ribavirin, reference compound]",3.13
9,Nc1ccn([C@@H]2C=C(CO)[C@@H](O)[C@H]2O)c(=O)n1 [β-D-HA],5.52

# Same assay, conditions: Table 25; HCV RNA ΔCt minus rDNA ΔCt
row,Compound,average ΔΔCt
1,OC[C@@H]1O[C@H](n2cnc3c(Cl)ncnc32)CS1 [β-L-KA],3.69
2,Nc1ncnc2c([C@@H]3O[C@H](CO)[C@@H](O)[C@H]3O)cnn12 [β-D-UA],2.41
3,Nc1nc(=O)n([C@@H]2O[C@H](CO)[C@@H](O)[C@H]2O)cc1F [β-D-AQ],2.73
4,N=c1nc2n(cc1F)[C@@H]1O[C@H](CO)[C@@H](O)[C@@H]1O2 [β-D-MF],1.65
5,Nc1nc(F)nc2c1ncn2[C@@H]1CS[C@H](CO)O1 [β-L-KC],3.54
6,O=c1nc(NO)c(I)cn1[C@@H]1O[C@H](CO)[C@@H](O)[C@H]1O [β-D-BV],1.65
7,N=c1nc2c(c[nH]1)[C@@H]1O[C@H](CO)[C@@H](O)[C@@H]1O2 [β-D-TA],0.93
8,Nc1ccn([C@@H]2C=C(CO)[C@@H](O)[C@H]2O)c(=O)n1 [β-D-HA],3.16

# Same assay, conditions: Table 25; HCV replicon in Huh7 cells; average of N
row,Compound,Ave. HCV RNA ΔCt
1,OC[C@@H]1O[C@H](n2cnc3c(Cl)ncnc32)CS1 [β-L-KA],4.10
2,Nc1ncnc2c([C@@H]3O[C@H](CO)[C@@H](O)[C@H]3O)cnn12 [β-D-UA],2.91
3,Nc1nc(=O)n([C@@H]2O[C@H](CO)[C@@H](O)[C@H]2O)cc1F [β-D-AQ],4.75
4,N=c1nc2n(cc1F)[C@@H]1O[C@H](CO)[C@@H](O)[C@@H]1O2 [β-D-MF],3.79
5,Nc1nc(F)nc2c1ncn2[C@@H]1CS[C@H](CO)O1 [β-L-KC],2.73
6,O=c1nc(NO)c(I)cn1[C@@H]1O[C@H](CO)[C@@H](O)[C@H]1O [β-D-BV],1.88
7,N=c1nc2c(c[nH]1)[C@@H]1O[C@H](CO)[C@@H](O)[C@@H]1O2 [β-D-TA],4.00
8,Nc1ccn([C@@H]2C=C(CO)[C@@H](O)[C@H]2O)c(=O)n1 [β-D-HA],5.12

# System: rRNA (host RNA polymerase I product)
# Assay: rRNA ΔCt in Huh7 replicon cells (effect on host RNA polymerases)
# Settings: Table 24, average of n
# Excerpt: In a typical setting, a compound might reduce both the host RNA polymerase activity and the replicon-encoded polymerase activity. Therefore, quantification of rRNA (or any other host RNA polymerase I product) or beta-actin mRNA (or any other host RNA polymerase II) and comparison with RNA levels of the no-drug control is a relative measurement of the effect of the test compound on host RNA polymerases.
# With the availability of both the HCV ΔCt data and the rRNA ΔCt, a specificity parameter can be introduced. This parameter is obtained by subtracting both ΔCt values from each other.
row,Compound,Ave. rRNA ΔCt
1,OC[C@@H]1O[C@H](n2cnc3c(Cl)ncnc32)CS1 [β-L-KA],4.84
2,Nc1ncnc2c([C@@H]3O[C@H](CO)[C@@H](O)[C@H]3O)cnn12 [β-D-UA],1.61
3,Nc1nc(=O)n([C@@H]2O[C@H](CO)[C@@H](O)[C@H]2O)cc1F [β-D-AQ],3.22
4,N=c1nc2n(cc1F)[C@@H]1O[C@H](CO)[C@@H](O)[C@@H]1O2 [β-D-MF],2.69
5,Nc1nc(F)nc2c1ncn2[C@@H]1CS[C@H](CO)O1 [β-L-KC],1.35
6,O=c1nc(NO)c(I)cn1[C@@H]1O[C@H](CO)[C@@H](O)[C@H]1O [β-D-BV],0.65
7,N=c1nc2c(c[nH]1)[C@@H]1O[C@H](CO)[C@@H](O)[C@@H]1O2 [β-D-TA],3.31
8,"NC(=O)c1ncn([C@@H]2O[C@H](CO)[C@@H](O)[C@H]2O)n1 [RIB, ribavirin, reference compound]",2.35
9,Nc1ccn([C@@H]2C=C(CO)[C@@H](O)[C@H]2O)c(=O)n1 [β-D-HA],3.85

# System: rDNA (host DNA)
# Assay: rDNA ΔCt in Huh7 replicon cells (effect on cellular DNA polymerases)
# Settings: Table 25, average of N
# Excerpt: In another typical setting, a compound might reduce the host RNA polymerase activity, but not the host DNA polymerase activity. Therefore, quantification of rDNA or beta-actin DNA (or any other host DNA fragment) and comparison with DNA levels of the no-drug control is a relative measurement of the inhibitory effect of the test compound on cellular DNA polymerases.
# With the availability of both the HCV ΔCt data and the rDNA ΔCt, a specificity parameter can be introduced. This parameter is obtained by subtracting both ΔCt values from each other.
row,Compound,Ave. rDNA ΔCt
1,OC[C@@H]1O[C@H](n2cnc3c(Cl)ncnc32)CS1 [β-L-KA],0.42
2,Nc1ncnc2c([C@@H]3O[C@H](CO)[C@@H](O)[C@H]3O)cnn12 [β-D-UA],0.50
3,Nc1nc(=O)n([C@@H]2O[C@H](CO)[C@@H](O)[C@H]2O)cc1F [β-D-AQ],1.78
4,N=c1nc2n(cc1F)[C@@H]1O[C@H](CO)[C@@H](O)[C@@H]1O2 [β-D-MF],2.17
5,Nc1nc(F)nc2c1ncn2[C@@H]1CS[C@H](CO)O1 [β-L-KC],−0.81
6,O=c1nc(NO)c(I)cn1[C@@H]1O[C@H](CO)[C@@H](O)[C@H]1O [β-D-BV],0.31
7,N=c1nc2c(c[nH]1)[C@@H]1O[C@H](CO)[C@@H](O)[C@@H]1O2 [β-D-TA],3.07
8,Nc1ccn([C@@H]2C=C(CO)[C@@H](O)[C@H]2O)c(=O)n1 [β-D-HA],2.04
